Drawing on BindingDB's records for doi:10.7270/Q22F7KMG (Eli Lilly, 1995), this text covers IC50 for 9 molecules.

In assay [1] the target is T1, Dimer of Gag-Pol polyprotein [489-587] (Human immunodeficiency virus 1, UniProt P12497).
T1 construct: 489-587
As to the kind of experiment: Protease Inhibition Assay. To be noted: pH 5.5; 22 °C. The text has this:
(§1) In the presence of HIV-l protease, the substrate is rapidly cleaved into two parts. The biotinylated amino terminal fragment binds to the avidin Pandex beads while the FITC-containing carboxy1 terminal fragment is removed through the membrane.

The target in assay [2] is T2, Gag-Pol polyprotein [489-587] (Human immunodeficiency virus 1, UniProt P04585).
T2 construct: 489-587

Assay [3] concerns the target T2, Gag-Pol polyprotein [489-587]. As to the kind of experiment: Protease Inhibition Assay.
Excerpt: as §1

As usually defined, the IC50 is the point on the concentration scale where inhibition reaches its midpoint. Read a low IC50 as higher potency. `CC(C)(C)NC(=O)[C@@H]1C[C@@H]2SCC[C@@H]2CN1C[C@@H](O)[C@H](Cc1ccccc1)NC(=O)[C@@H](CS(=O)(=O)c1ccc2ccccc2c1)NS(C)(=O)=O` [(3aR,6S,7aS)-N-tert-butyl-5-[(2R,3S)-2-hydroxy-3-[(2S)-2-methanesulfonamido-3-(naphthalene-2-sulfonyl)propanamido]-4-phenylbutyl]-octahydrothieno[3,2-c]pyridine-6-carboxamide]: the half-inhibitory concentration (IC50) in assay [1] and in assay [2] was below 0.2 nM in each case.
On to `CC(C)(C)NC(=O)[C@@H]1C[C@@H]2SCC[C@@H]2CN1C[C@@H](O)[C@H](Cc1ccccc1)NC(=O)[C@@H](CS(=O)(=O)c1cccc2cccnc12)NS(C)(=O)=O` [(3aR,6S,7aS)-N-tert-butyl-5-[(2R,3S)-2-hydroxy-3-[(2S)-2-methanesulfonamido-3-(quinoline-8-sulfonyl)propanamido]-4-phenylbutyl]-octahydrothieno[3,2-c]pyridine-6-carboxamide], for which the IC50 in assay [1] and in assay [3] was 0.71 nM each time.
On to `CC(C)(C)NC(=O)[C@@H]1C[C@@H]2SCC[C@@H]2CN1C[C@@H](O)[C@H](Cc1ccccc1)NC(=O)[C@@H](CS(=O)(=O)c1ccc2ccccc2c1)NC(=O)C(F)(F)F` [(3aR,6S,7aS)-N-tert-butyl-5-[(2R,3S)-2-hydroxy-3-[(2S)-3-(naphthalene-2-sulfonyl)-2-(2,2,2-trifluoroacetamido)propanamido]-4-phenylbutyl]-octahydrothieno[3,2-c]pyridine-6-carboxamide], for which the half-inhibitory concentration (IC50) in assay [1] and in assay [2] was below 0.2 nM throughout.
Turning to `CC(C)(C)NC(=O)[C@@H]1C[C@@H]2SCC[C@@H]2CN1C[C@@H](O)[C@H](Cc1ccccc1)NC(=O)[C@@H](CS(=O)(=O)c1cccc2cccnc12)NC(=O)C(F)(F)F` [(3aR,6S,7aS)-N-tert-butyl-5-[(2R,3S)-2-hydroxy-4-phenyl-3-[(2S)-3-(quinoline-8-sulfonyl)-2-(2,2,2-trifluoroacetamido)propanamido]butyl]-octahydrothieno[3,2-c]pyridine-6-carboxamide], the IC50 in assay [1] and in assay [3] was 0.21 nM throughout.
On to `CC(=O)N[C@H](CS(=O)(=O)c1ccc2ccccc2c1)C(=O)N[C@@H](Cc1ccccc1)[C@H](O)CN1C[C@H]2CCS[C@H]2C[C@H]1C(=O)NC(C)(C)C` [(3aR,6S,7aS)-N-tert-butyl-5-[(2R,3S)-3-[(2S)-2-acetamido-3-(naphthalene-2-sulfonyl)propanamido]-2-hydroxy-4-phenylbutyl]-octahydrothieno[3,2-c]pyridine-6-carboxamide], for which the half-maximal inhibitory concentration (IC50) in assay [1] and in assay [3] was 0.5 nM in each case.
In the case of `CC(=O)N[C@H](CS(=O)(=O)c1cccc2cccnc12)C(=O)N[C@@H](Cc1ccccc1)[C@H](O)CN1C[C@H]2CCS[C@H]2C[C@H]1C(=O)NC(C)(C)C` [(3aR,6S,7aS)-N-tert-butyl-5-[(2R,3S)-3-[(2S)-2-acetamido-3-(quinoline-8-sulfonyl)propanamido]-2-hydroxy-4-phenylbutyl]-octahydrothieno[3,2-c]pyridine-6-carboxamide], the IC50 in assay [1] and in assay [3] was 0.42 nM in each case.
On to `CC(C)(C)NC(=O)[C@@H]1C[C@@H]2SCC[C@@H]2CN1C[C@@H](O)[C@H](Cc1ccccc1)NC(=O)[C@@H](CS(=O)(=O)c1ccc(F)cc1)NC(=O)C(F)(F)F` [(3aR,6S,7aS)-N-tert-butyl-5-[(2R,3S)-3-[(2S)-3-[(4-fluorobenzene)sulfonyl]-2-(2,2,2-trifluoroacetamido)propanamido]-2-hydroxy-4-phenylbutyl]-octahydrothieno[3,2-c]pyridine-6-carboxamide], for which the IC50 in assay [1] and in assay [2] was below 0.2 nM throughout.
On to `CC(C)(C)NC(=O)[C@@H]1C[C@@H]2SCC[C@@H]2CN1C[C@@H](O)[C@H](Cc1ccccc1)NC(=O)[C@@H](CS(=O)(=O)c1ccc(F)cc1)NS(C)(=O)=O` [(3aR,6S,7aS)-N-tert-butyl-5-[(2R,3S)-3-[(2S)-3-[(4-fluorobenzene)sulfonyl]-2-methanesulfonamidopropanamido]-2-hydroxy-4-phenylbutyl]-octahydrothieno[3,2-c]pyridine-6-carboxamide], for which the IC50 in assay [1] and in assay [3] was 0.22 nM throughout.
As to `CC(C)(C)NC(=O)[C@@H]1C[C@@H]2CCCC[C@@H]2CN1C[C@@H](O)[C@H](Cc1ccccc1)NC(=O)[C@@H](CS(=O)(=O)c1ccc(F)cc1)NS(C)(=O)=O` [Saquinavir/Nelfinavir deriv.], the IC50 in assay [1] and in assay [3] was 2 nM in each case.
